# Data as given in US6534039B2, “Extended organic cobalt and nickel magnetic complexes” (priority 2000, dated 2003).
# How the values were obtained:
# [1] = test system: brain tumor (N32 and F98); test: MRI of brain tumors in rats with contrast agent; type: in vivo, rat
# Text: Rats were implanted with tumors by stereotactic infusion of tumor cells into the brain.
# Various MRI imaging modes were used in the analysis: T1-weighted, T2-weighted, and T2*-weighted.
# Rats weighing about 350 g, seeded with either F98 or N32 cells were used for tumor imaging. A<0.5 mm burr hole was drilled through the skull of the anesthetized rats at the point of inoculation. Tumors were initiated by inoculating one microliter of culture medium, containing 10,000 cultured cells, 4-5 mm deep into the left striatum, at a point 4 mm to the left of the midline in the (serrated) coronal suture. A 27-gauge needle fitted with a depth-limiting plastic collar to ensure cell injection 4-5 mm beneath the skull was connected to a Hamilton microsyringe via flexible tubing. Following a 30-second infusion of the cells, another 30 seconds was taken to allow the cells to settle before removing the needle. For F98 tumor animals, death ensued 24+ days after inoculation.
# MRI was performed at day 16 after tumor cell implantation. […] The rats were immediately positioned on a support and MRI was performed in a 1.5 tesla whole-body clinical scanner (Siemens Vision, Germany) with a human extremity (knee) coil. High-resolution turbo spin-echo sagittal imaging was used for selecting slice position with imaging parameters as follows. […]
# [2] = test system: regions of wound healing; test: Wound healing delineation by MRI; type: in vivo, rat; conditions: site opened two weeks prior for injecting tumor cells
# Experimental: MRI was performed at day 16 after tumor cell implantation. The animals were anesthetized and injected interperitoneally with either 200 microliters of gadodiamide (287 mg gadodiamide/ml) (Omniscan, Nycomed, Princeton, N.J.) or 200 microliters of the extended cobalt complex (containing 10 mg Co/ml ±30%). The rats were immediately positioned on a support and MRI was performed in a 1.5 tesla whole-body clinical scanner (Siemens Vision, Germany) with a human extremity (knee) coil. High-resolution turbo spin-echo sagittal imaging was used for selecting slice position with imaging parameters as follows. For T2 weighted images: repetition time (TR)=3000 msec; echo time (TE)=25 msec; field of view (FOV)=100×100 mm; matrix size=256×256; image slice thickness (TH)=2 mm. Tumor images were collected at various times after a single interperitoneal injection. Imaging times were 3 min/scan and resolution was […]. Imaging covered a 30 min period after injection.
# This is surprising as the vasculature and components of a wounded region differ from normal tissue only subtly, and these differences are not highlighted by the gadodiamide reagent. This type of imaging can be used to detect internal damage, internal bleeding, or other forms of lesions with MRI using the cobalt complex as contrast agent.
# Methods were performed as in Example 8.
# [3] = rat, in vivo, ip
smiles,measurement,setting,value
CNC(=O)CN(CCN(CCN(CC(=O)[O-])CC(=O)NC)CC(=O)[O-])CC(=O)[O-].[Gd+3] [gadodiamide],tumor visibility in all MRI imaging modes,"[1]; T1-weighted, T2-weighted and T2*-weighted",no trace of any tumors was evident
same,enhancement / imaging of brain tumor by MRI,"[1]; rats with N32 or F98 tumor, 200 microliters interperitoneally, 1.5 tesla",No enhancement
same,image contrast at wound site by MRI,[2],No such contrast was evident
same,ALBm (albumen),[3],1.5 g/dL
same,ALP (alkaline phosphatase),[3],202 IU/L
same,ALT (alanine transaminase),[3],62 IU/L
same,AST (aspartate transaminase),[3],183 IU/L
same,BUNm (blood urea nitrogen),[3],16 mg/dL
same,CK (creatine kinase),[3],820 IU/L
same,CL (chloride),[3],101 mEq/L
same,CO2 (carbon dioxide),[3],30 mEq/L
same,GLUCm (glucose),[3],177 mg/dL
same,K (potassium),[3],5.5 mEq/L
same,NA (sodium),[3],139 mEq/L
same,liver enzyme activity compared to the control,[3],slight increase
